# Measured values from US20240317748A1, “CARBONYL SUBSTITUTED DIAZASPIRO COMPOUNDS AND ITS USE” (BIONOVA PHARMACEUTICALS (SHANGHAI) LIMITED, priority 2021, published 2024).
# What was measured:
# [1] = molecular target: T1, Menin-MLL1 (Homo sapiens, UniProt O00255); experiment: Menin-MLL1 inhibition assay (fluorescence polarization, Menin protein + FAM-MLL peptide); type: binding; conditions: Menin (2-610) isoform 2, FAM-labelled MLL peptide, mP readout; read-out: Biochemical assay Menin-MLL1 IC50
# T1 construct: Menin (2-610) isform2; purchased ChemPartner 2020111101
# T1 sequence (O00255 2-610): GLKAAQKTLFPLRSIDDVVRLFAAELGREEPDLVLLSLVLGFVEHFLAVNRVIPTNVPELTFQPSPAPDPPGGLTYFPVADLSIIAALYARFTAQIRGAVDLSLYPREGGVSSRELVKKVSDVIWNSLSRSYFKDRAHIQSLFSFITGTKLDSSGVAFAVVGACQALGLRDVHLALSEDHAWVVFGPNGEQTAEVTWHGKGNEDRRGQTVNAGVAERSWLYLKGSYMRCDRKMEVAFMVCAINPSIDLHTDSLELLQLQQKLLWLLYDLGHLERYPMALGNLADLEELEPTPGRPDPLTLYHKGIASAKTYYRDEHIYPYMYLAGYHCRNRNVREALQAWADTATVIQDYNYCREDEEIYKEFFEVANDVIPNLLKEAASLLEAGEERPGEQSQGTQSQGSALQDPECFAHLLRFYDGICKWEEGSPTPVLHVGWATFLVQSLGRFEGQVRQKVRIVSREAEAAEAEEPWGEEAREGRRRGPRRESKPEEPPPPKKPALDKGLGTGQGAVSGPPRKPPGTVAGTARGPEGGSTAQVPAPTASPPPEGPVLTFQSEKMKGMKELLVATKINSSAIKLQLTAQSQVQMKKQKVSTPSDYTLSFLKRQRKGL
# Procedure: 1× assay bu9ffer (Tris 7.5 50 mM, NaCl 50 mM, DTT 1 mM, Tween-20 0.01%) was prepared and test compounds solution (10 mM in DMSO, Sigma, Cat. No. 34869) were transferred to assay plate (384-well plate, Perkin Elmer, Cat. No. 6007279) by Echo. The final fraction of DMSO is 1%. 20 nM of Menin protein (Menin (2-610) isform2, ChemPartner, Cat. No. 2020111101) in 1× assay buffer was added to prepare 2× enzyme solution. Then 10 nM of MLL-peptide (Ac-SRWRFPARPGTGRR-Ahx-Ahx-K(FAM)-NH2, GL Biochem (Shanghai)), Cat. No. 833831/202009220104) in 1× assay buffer was added to prepare 2× substrate solution. 10 μL of 2× enzyme solution was transferred to assay plate or 10 μL of 1× assay buffer for low control group. 10 μL of 2× substrate solution was added to each well to start reaction. mP data on Envision (Ex480/Em535(s), Em535(p)) was collected.
# Compound potencies were determined by first calculating % inhibition at each compound concentration according to equation 1:
# Inhibition %=(Max−Signal)/(Max−Min)*100 (Equation 1)
# Y=Bottom+(Top-Bottom)/(1+(IC50/X)[…]), where Y is % inhibition and X is compound concentration (Equation 2)
# [2] = tested on: MV-4-11 cells; experiment: Cell proliferation assay (CellTiter-Glo), MV-4-11; type: cell-based, human; conditions: Homo sapiens, MV4-11, 96 h; MV-4-11 (MLL-AF4), 4 days incubation; read-out: Cell antiproliferation assay MV-4-11 IC50
# Procedure: The antiproliferative activity of test compounds was assessed in human leukemia cell lines. The cell line MV4-11, MOLM13 and OCI-AML3, which expresses the MLL fusion protein MLL-AF4, MLL-AF9 and carry the NPM1c gene mutation, respectively, were tested. HL-60 was used as a control cell line containing two MLL wildtype alleles in order to exclude compounds that display general cytotoxic effect. MV4-11 cells were cultured in IMDM supplemented with 10% FBS, MOLM13 and OCI-AML3 cells were cultured in RPMI1640 supplemented with 20% FBS, and HL-60 cells were cultured in IMDM supplemented with 20% FBS. Corresponding cells (MV4-11, MOLM13, OCI-AML3 or HL-60 cell line) were seeded in 100 uL medium per well in 96-well plate (white wall with clear bottom, tissue culture treated, Corning, Cat. No. CLS3903; Lot.No. 30419025). Plates were placed in the CO2 incubator overnight. Compounds solution (2 mM starting, 4-fold serial dilution) were prepared and added to the wells containing 100 μL of the culture medium with HPD300 according to the plate map and centrifuge at 1000 rpm for 1 minutes (200-fold dilution totally). MV4-11, MOLM13, OCI-AML3 and HL-60 cells were incubated with the compounds for 4, 12, 5 and 4 days, respectively, under 5% CO2 at 37° C., respectively. 100 μL of CellTiter-Glo reagent (Promega, Cat. No. G7573, Lot. No. 0000416710) was added to the assay plate by Multidrop Combi instrument, contents were mixed for 10 minutes on an orbital shaker to induce cell lysis. After incubation at room temperature for 10 mins, clear bottom with white back seal was pasted and luminescence with Envision was read.
SMILES,IC50 [1],IC50 [2]
CCN(C(=O)c1cc(F)ccc1Oc1cncnc1N1CC2(CCN(C(=O)[C@H]3NCC[C@H]3C)CC2)C1)C(C)C [Example 40],5.4 nM,26.2 nM
CC(C)n1ncnc1-c1cc(F)ccc1Oc1cncnc1N1CC2(CCN(C(=O)[C@@H]3C[C@@H](F)CN3)CC2)C1 [Example 43],4.8 nM,170 nM
CCN(C(=O)c1cc(F)ccc1Oc1cncnc1N1CC2(CCN(C(=O)[C@H]3NCc4c3cnn4Cc3ccccc3)CC2)C1)C(C)C [Example 44],3.9 nM,30.7 nM
CC(C)N(CC(F)F)C(=O)c1cc(F)ccc1Oc1cncnc1N1CC2(CCN(C(=O)[C@@H]3C[C@@H](F)CN3)CC2)C1 [Example 45],3.4 nM,36.1 nM
CCN(C(=O)c1cc(F)ccc1Oc1cncnc1N1CCC2(CC1)CN(C(=O)[C@@H]1C[C@@H](F)CN1)C2)C(C)C [Example 46],7.7 nM,494 nM
CCN(C(=O)c1cc(F)ccc1Oc1cncnc1N1CC2(CCN(C(=O)[C@@H]3C[C@@H](c4ccccc4)CN3)CC2)C1)C(C)C [Example 48],11.4 nM,144 nM
COCCN(C(=O)c1cc(F)ccc1Oc1cncnc1N1CC2(CCN(C(=O)[C@@H]3C[C@@H](F)CN3)CC2)C1)C(C)C [Example 50],4.4 nM,120 nM
C[C@@H]1COCCN1C(=O)c1cc(F)ccc1Oc1cncnc1N1CC2(CCN(C(=O)[C@@H]3C[C@@H](F)CN3)CC2)C1 [Example 51],4.3 nM,221 nM
C[C@H]1COCCN1C(=O)c1cc(F)ccc1Oc1cncnc1N1CC2(CCN(C(=O)[C@@H]3C[C@@H](F)CN3)CC2)C1 [Example 53],10.9 nM,786 nM
CCN(C(=O)c1cc(F)ccc1Oc1cncnc1N1CC2(CCN(C(=O)[C@H]3NCc4[nH]ncc43)CC2)C1)C(C)C [Example 54],4.3 nM,582 nM
O=C([C@@H]1C[C@@H](F)CN1)N1CCC2(CC1)CN(c1ncncc1Oc1ccc(F)cc1C(=O)N1C3CCC1COC3)C2 [Example 59],5.5 nM,159 nM
CCN(C(=O)c1cc(F)ccc1Oc1nncnc1N1CC2(CCN(C(=O)[C@@H]3CC(CC#N)CN3)CC2)C1)C(C)C (some centres unmarked) [Example 61],6.1 nM,153 nM
CCN(C(=O)c1cc(F)ccc1Oc1nncnc1N1CC2(CCN(C(=O)[C@@H]3NCCC3(C)C)CC2)C1)C(C)C [Example 66],11 nM,308 nM
CC[C@@H]1CCN[C@H]1C(=O)N1CCC2(CC1)CN(c1ncnnc1Oc1ccc(F)cc1C(=O)N(CC)C(C)C)C2 [Example 71],16 nM,1250 nM
CC(C)N(C(=O)c1cc(F)ccc1Oc1nncnc1N1CC2(CCN(C(=O)[C@@H]3C[C@@H](C)CN3)CC2)C1)C(C)C [Example 73],4.1 nM,22 nM
CC(C)n1ncc(Cl)c1-c1cc(F)ccc1Oc1nncnc1N1CC2(CCN(C(=O)[C@@H]3C[C@@H](F)CN3)CC2)C1 [Example 75],5.8 nM,40.6 nM
CC(C)N(C(=O)c1cc(F)ccc1Oc1nncnc1N1CC2(CCN(C(=O)[C@H]3NCC[C@H]3C)CC2)C1)C(C)C [Example 76],3.7 nM,16.7 nM

SMILES,IC50 [1],IC50 [2]
CCN(C(=O)c1cc(F)ccc1Oc1nncnc1N1CC2(CCN(C(=O)[C@@H]3NCC[C@H]3CF)CC2)C1)C(C)C [Example 89],24 nM,1010 nM
CCN(C(=O)c1cc(F)ccc1Oc1nnc(Cl)nc1N1CC2(CCN(C(=O)[C@H]3NC[C@@H]4C[C@@H]43)CC2)C1)C(C)C [Example 91],7.3 nM,248 nM
CCN(C(=O)c1cc(F)ccc1Oc1nncnc1N1CC2(CCN(C(=O)[C@H]3NC[C@H](C)[C@@H]3C)CC2)C1)C(C)C [Example 92],8 nM,18.8 nM
CCN(C(=O)c1cc(F)ccc1Oc1nncnc1N1CC2(CCN(C(=O)[C@@H]3NC[C@@H](C)[C@H]3C)CC2)C1)C(C)C [Example 93],24.8 nM,457 nM
N#Cc1ccc(-c2cc(F)ccc2Oc2nncnc2N2CC3(CCN(C(=O)[C@H]4NC[C@@H]5C[C@@H]54)CC3)C2)c(C2CC2)n1 [Example 94],3.4 nM,11.8 nM
CC1(C)[C@@H]2[C@@H](C(=O)N3CCC4(CC3)CN(c3ncnnc3Oc3ccc(F)cc3-c3ccc(C#N)nc3C3CC3)C4)NC[C@@H]21 [Example 95],2.5 nM,5.5 nM
CO[C@H]1CCN[C@@H]1C(=O)N1CCC2(CC1)CN(c1ncnnc1Oc1ccc(F)cc1-c1ccc(C#N)cc1C1CC1)C2 [Example 96],4 nM,5.6 nM
"CCN(C(=O)c1cc(F)ccc1Oc1nncnc1N1CC2(CCN(C(=O)[C@H]3NCC[C@@H]3C(F)F)CC2)C1)C(C)C [Example 99a, 2-((5-(7-((2S,3S)-3-(difluoromethyl)pyrrolidine-2-carbonyl)-2,7-diazaspiro[3.5]nonan-2-yl)-1,2,4-triazin-6-yl)oxy)-N-ethyl-5-fluoro-N-isopropylbenzamide]",5.4 nM,46.4 nM
"CCN(C(=O)c1cc(F)ccc1Oc1nncnc1N1CC2(CCN(C(=O)[C@@H]3NCC[C@H]3C(F)F)CC2)C1)C(C)C [Example 99b, 2-((5-(7-((2R,3R)-3-(difluoromethyl)pyrrolidine-2-carbonyl)-2,7-diazaspiro[3.5]nonan-2-yl)-1,2,4-triazin-6-yl)oxy)-N-ethyl-5-fluoro-N-isopropylbenzamide]",43 nM,1930 nM
CCN(C(=O)c1cc(F)ccc1Oc1nncnc1N1CC2(CCN(C(=O)[C@H]3NCC[C@@H]3C3CC3)CC2)C1)C(C)C [Example 100a],2.7 nM,6.9 nM
CCN(C(=O)c1cc(F)ccc1Oc1nncnc1N1CC2(CCN(C(=O)[C@@H]3NCC[C@H]3C3CC3)CC2)C1)C(C)C [Example 100b],11.7 nM,284 nM
CO[C@H]1CCN[C@@H]1C(=O)N1CCC2(CC1)CN(c1ncnnc1Oc1ccc(F)cc1-c1ccc(C#N)nc1C1CC1)C2 [Example 101],6 nM,6.8 nM
[2H]C([2H])(C)N(C(=O)c1cc(F)ccc1Oc1nncnc1N1CC2(CCN(C(=O)[C@H]3NC[C@@H]4CCC[C@@H]43)CC2)C1)C(C)C [Example 102],5.4 nM,4.6 nM
O=C([C@H]1NC[C@@H]2CCC[C@@H]21)N1CCC2(CC1)CN(c1ncnnc1Oc1ccc(F)cc1-c1cccnc1C1CC1)C2 [Example 103],4.4 nM,1.5 nM
CC(C)N(CCO)C(=O)c1cc(F)ccc1Oc1nncnc1N1CC2(CCN(C(=O)[C@H]3NC[C@@H]4CCC[C@@H]43)CC2)C1 [Example 104],4.5 nM,26.7 nM
CC(C)N(CC(F)F)C(=O)c1cc(F)ccc1Oc1nncnc1N1CC2(CCN(C(=O)[C@H]3NC[C@@H]4CCC[C@@H]43)CC2)C1 [Example 105],4 nM,17.1 nM
O=C([C@H]1NC[C@@H]2CCC[C@@H]21)N1CCC2(CC1)CN(c1ncnnc1Oc1ccc(F)cc1-c1ccc(=O)[nH]c1C1CC1)C2 [Example 106],2 nM,9.4 nM
